Reference: US20230355586A1, “Application of Valdecoxib in preparation of medications for preventing and treating glaucoma” (Central South University, priority 2022, published 2023)
Entries after “also recorded” stand apart in the source; their conditions may differ.

Legend:
[1] = tested on: RGCs (retinal ganglion cells); assay: TUNEL/RBPMS apoptosis assay of retina in aHIOP retinal I/R model; type: in vivo, SD (Sprague-Dawley) rats; conditions: rat I/R model, compared to the I/R group
Procedure: (§1) Through animal ethics, cell culture, animal selection, reagent and antibody information, anterior chamber compression rat model is established, R28 cell OGD/R (oxygen-glucose deprivation/reoxygenation) model is established; HE (hematoxylin-eosin) staining, apoptosis by TUNEL (TdT-mediated dUTP Nick-End Labeling) detection, cell viability by CCK8 (Cell Counting Kit-8), Western blot assay, Annexin V-FITC/PI flow cytometry, PI/Hoechest staining and immunofluorescence assay are performed.
(§2) In order to evaluate the potential therapeutic prospect of VAL for saving RGCs (retinal ganglion cells) in glaucoma retinal injury, the glaucoma retinal IR is simulated by performing an aHIOP (acute high intraocular pressure) model on SD (Sprague-Dawley) rats. The rats are sacrificed and their eyeballs are removed at 1, 3 or 7 days post-IRI. HE staining is performed to detect the morphological changes in the retina. It is discovered that, compared to the control group, the retinas from 3 and 7 days post-IRI are markedly thinner. Additionally, lost RCGs or their disordered arrangement is observed at 3 and 7 days after IRI when compared with the control retina, as shown in FIGS. 2A and 2B. Next, the valdecoxib's effect on the RGCs in the FR model by HE staining and immunofluorescence. […] A TUNEL assay is performed to clarify whether valdecoxib's protective effect involves the anti-apoptosis mechanism. […]

[2] = tested on: retina / RGCs (retinal ganglion cells); assay: HE staining of retina in acute high intraocular pressure (aHIOP) retinal I/R model; type: in vivo, SD (Sprague-Dawley) rats; conditions: rat I/R model, 3 days post-injury, intravitreal injection
Procedure: as §1, §2

R28 cells [3] = assay: Annexin V-FITC/PI flow cytometry apoptosis in R28 OGD/R model; type: cell-based, rat; conditions: vs. OGD/R group
Procedure: (§3) Through animal ethics, cell culture, animal selection, reagent and antibody information, anterior chamber compression rat model is established, […] cell OGD/R (oxygen-glucose deprivation/reoxygenation) model is established; HE (hematoxylin-eosin) staining, apoptosis by TUNEL (TdT-mediated dUTP Nick-End Labeling) detection, cell viability by CCK8 (Cell Counting Kit-8), Western blot assay, Annexin V-FITC/PI flow cytometry, PI/Hoechest staining and immunofluorescence assay are performed. The cell death rate at multiple time points with the OGD/R model is detected using PI staining. PI-positive cells are identified as dead cells. The proportion of PI-positive cells at multiple time points are calculated. […] To identify whether the valdecoxib's effect involved an anti-apoptosis mechanism, FCM (flow cytometry) is performed, and a further analysis indicates both that OGD/R induced cell apoptosis and the valdecoxib decreases the cell apoptosis rate, as shown in FIGS. 1E-1H.

R28 cells [4] = assay: CCK-8 cell viability in R28 OGD/R model; type: cell-based, rat; conditions: 2 h post-OGD/R, vs. OGD/R group
Procedure: as §3

PERK-ATF4-CHOP pathway [5] = assay: Western blot of ER stress, PERK-ATF4-CHOP pathway and apoptosis proteins in R28 OGD/R model; type: cell-based, rat; conditions: R28 cells
PERK-ATF4-CHOP pathway [6] = assay: Western blot of retina lysates in retinal I/R model; type: in vivo, rats; conditions: rat retina
Procedure: as §1, with “R28” left out, “performed. […] The expression levels of the apoptosis-related proteins are examined in the control, I/R, I/R+DMSO and I/R+valdecoxib groups. […] The expression levels of p-PERK, cleaved caspase 3 and GRP78 in RGCs are evaluated by immunofluorescence.” for “performed.”

R28 cells [7] = assay: Cell death of R28 cells pretreated with CCT020312; type: cell-based, rat; conditions: R28 cells pretreated with different concentrations of CCT020312
[8] = I/R, pretreated with valdecoxib

Cc1onc(-c2ccccc2)c1-c1ccc(S(N)(=O)=O)cc1 [valdecoxib]
TUNEL-positive RGCs [1]: reduced | RGCs' survival rate [2]: significantly increases | retinal thickness (HE staining) [2]: significantly increases | cell apoptosis rate (flow cytometry) (R28 cells [3]): decreases | cell survival rate (CCK-8) (R28 cells [4]; 1 μmol/L): significantly elevates | cell survival rate (CCK-8) (R28 cells [4]; 1 μmol/L, listed as VAL): significant increase | cell survival rate (CCK-8) (R28 cells [4]; 5 μmol/L): significantly elevates | cell survival rate (CCK-8) (R28 cells [4]; 5 μmol/L, listed as VAL): significant increase | ATF4 protein level (Western blot) (PERK-ATF4-CHOP pathway [5]; valdecoxib pretreatment): decrease the expression; also recorded: significantly reduces | CHOP protein level (Western blot) (PERK-ATF4-CHOP pathway [5]; valdecoxib pretreatment): decrease the expression; also recorded: significantly reduces | GRP78 protein level (Western blot) (PERK-ATF4-CHOP pathway [5]; valdecoxib pretreatment): decrease the expression; also recorded: significantly reduces | bax protein level (Western blot) (PERK-ATF4-CHOP pathway [5]; valdecoxib pretreatment): decreased; also recorded: significantly reduces | bcl-2 protein expression (Western blot) (PERK-ATF4-CHOP pathway [5]; valdecoxib pretreatment): opposite to that of the bax and cleaved caspase 3 | cleaved caspase 3 protein level (Western blot) (PERK-ATF4-CHOP pathway [5]; valdecoxib pretreatment): decreased; also recorded: significantly reduces | p-PERK protein level (Western blot) (PERK-ATF4-CHOP pathway [5]; valdecoxib pretreatment): decrease the expression; also recorded: significantly reduces | bax expression (Western blot) (PERK-ATF4-CHOP pathway [6]; I/R injury): decreases the expression | bcl-2 expression (Western blot) (PERK-ATF4-CHOP pathway [6]; I/R injury): opposite of that of the bax and cleaved caspase 3 | cleaved caspase 3 expression (Western blot) (PERK-ATF4-CHOP pathway [6]; I/R injury): decreases the expression | ATF4 expression level (Western blot) (PERK-ATF4-CHOP pathway [6]; [8]): reduced | CHOP expression level (Western blot) (PERK-ATF4-CHOP pathway [6]; [8]): reduced | GRP78 expression (Western blot) (PERK-ATF4-CHOP pathway [6]; [8]): consistent with the PERK-ATF4-CHOP pathway proteins | p-PERK expression level (Western blot) (PERK-ATF4-CHOP pathway [6]; [8]): reduced

CCN(CC)CCC(=O)N1N=C(c2c(-c3ccccc3)c3cc(Br)ccc3[nH]c2=O)CC1c1ccc(Br)cc1 (centres unmarked) [CCT020312]
cell death (R28 cells [7]): no significant cell death | bax expression level (Western blot) (PERK-ATF4-CHOP pathway [5]; CCT020312 pre-treated group): consistent with those of the PERK-ATF4-CHOP pathway proteins | cleaved caspase 3 expression level (Western blot) (PERK-ATF4-CHOP pathway [5]; CCT020312 pre-treated group): consistent with those of the PERK-ATF4-CHOP pathway proteins | expression of markers of ER stress and the PERK-ATF4-CHOP pathway (Western blot) (PERK-ATF4-CHOP pathway [5]; valdecoxib pretreatment prior to CCT020312, vs. OGD/R+VAL): reverses the valdecoxib's effects, increasing the expression
